# Laboratory results from patent US8748415B2 (priority 2011, dated 2014).
# System: recombinant NL4-3 virus (Renilla luciferase in nef, Gag P373S)
# Experiment: HIV cell culture assay (luciferase activity in MT-2 cells infected with NLRluc recombinant virus)
# Format: cell-based
# Conditions: NL43, MT-2 cells infected 4-5 days with NLRluc recombinant virus, class symbol
# Outline: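 Activity was read as luciferase output (Dual Luciferase reagents premixed with lysis solution) after 4–5 days of infection in serially diluted inhibitor. Host cells were MT-2 in 10% FBS RPMI. The reporter virus came from transfected 293T cells and was titered on MT-2.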
row,SMILES,EC50
1,"C=C(C)[C@@H]1CC[C@]2(CNC(=O)CNC)CC[C@]3(C)[C@H](CC[C@@H]4[C@@]5(C)CC=C(c6ccc(C(=O)O)cc6)C(C)(C)[C@@H]5CC[C@]43C)[C@@H]12 [Example 139, 4-((1R,3aS,5aR,5bR,7aR,11aS,11bR,13aR,13bR)-5a,5b,8,8,11a-pentamethyl-3a-((2-(methylamino)acetamido)methyl)-1-(prop-1-en-2-yl)-2,3,3a,4,5,5a,5b,6,7,7a,8,11,11a,11b,12,13,13a,13b-octadecahydro-1H-cyclopenta[a]chrysen-9-yl)benzoic acid]",< 100 nM
2,C=C(C)[C@@H]1CC[C@]2(CNCc3ccc(S(N)(=O)=O)cc3)CC[C@]3(C)[C@H](CC[C@@H]4[C@@]5(C)CC=C(c6ccc(C(=O)O)cc6)C(C)(C)[C@@H]5CC[C@]43C)[C@@H]12 [Example 35],< 100 nM
3,"CC(C)[C@@H]1CC[C@]2(CNCCCN3CCS(=O)(=O)CC3)CC[C@]3(C)[C@H](CC[C@@H]4[C@@]5(C)CC=C(c6ccc(C(=O)O)cc6)C(C)(C)[C@@H]5CC[C@]43C)[C@@H]12 [Example 37, 4-((1R,3aS,5aR,5bR,7aR,11aS,11bR,13aR,13bR)-5a,5b,8,8,11a-pentamethyl-1-(prop-1-en-2-yl)-3a-((3-(1-dioxo-thiomorpholino)propylamino)methyl)-2,3,3a,4,5,5a,5b,6,7,7a,8,11,11a,11b,12,13,13a,13b-octadecahydro-1H-cyclopenta[a]chrysen-9-yl)benzoic acid]",< 100 nM
4,"C=C(C)[C@@H]1CC[C@]2(CNCCCC(=O)OC)CC[C@]3(C)[C@H](CC[C@@H]4[C@@]5(C)CC=C(c6ccc(C(=O)O)cc6)C(C)(C)[C@@H]5CC[C@]43C)[C@@H]12 [Example 38, 4-((1R,3aS,5aR,5bR,7aR,11aS,11bR,13aR,13bR)-3a-((4-methoxy-4-oxobutylamino)methyl)-5a,5b,8,8,11a-pentamethyl-1-(prop-1-en-2-yl)-2,3,3a,4,5,5a,5b,6,7,7a,8,11,11a,11b,12,13,13a,13b-octadecahydro-1H-cyclopenta[a]chrysen-9-yl)benzoic acid]",< 100 nM
5,"C=C(C)[C@@H]1CC[C@]2(CNC(=O)OCCN3CCCC3=O)CC[C@]3(C)[C@H](CC[C@@H]4[C@@]5(C)CC=C(c6ccc(C(=O)O)cc6)C(C)(C)[C@@H]5CC[C@]43C)[C@@H]12 [Example 162, 4-((1R,3aS,5aR,5bR,7aR,11aS,11bR,13aR,13bR)-5a,5b,8,8,11a-pentamethyl-3a-(((2-(2-oxopyrrolidin-1-yl)ethoxy)carbonylamino)methyl)-1-(prop-1-en-2-yl)-2,3,3a,4,5,5a,5b,6,7,7a,8,11,11a,11b,12,13,13a,13b-octadecahydro-1H-cyclopenta[a]chrysen-9-yl)benzoic acid]",< 100 nM
6,"C=C(C)[C@@H]1CC[C@]2(CNCCC(=O)N(C)CCS(C)(=O)=O)CC[C@]3(C)[C@H](CC[C@@H]4[C@@]5(C)CC=C(c6ccc(C(=O)O)cc6)C(C)(C)[C@@H]5CC[C@]43C)[C@@H]12 [Example 125, 4-((1R,3aS,5aR,5bR,7aR,11aS,11bR,13aR,13bR)-5a,5b,8,8,11a-pentamethyl-3a-((3-(methyl(2-(methylsulfonyl)ethyl)amino)-3-oxopropylamino)methyl)-1-(prop-1-en-2-yl)-2,3,3a,4,5,5a,5b,6,7,7a,8,11,11a,11b,12,13,13a,13b-octadecahydro-1H-cyclopenta[a]chrysen-9-yl)benzoic acid]",< 100 nM
7,"C=C(C)[C@@H]1CC[C@]2(CNC(=O)C(F)(F)C(=O)NCCN(C)C)CC[C@]3(C)[C@H](CC[C@@H]4[C@@]5(C)CC=C(c6ccc(C(=O)O)cc6)C(C)(C)[C@@H]5CC[C@]43C)[C@@H]12 [Example 152, 4-((1R,3aS,5aR,5bR,7aR,11aS,11bR,13aR,13bR)-3a-((3-(2-(dimethylamino)ethylamino)-2,2-difluoro-3-oxopropanamido)methyl)-5a,5b,8,8,11a-pentamethyl-1-(prop-1-en-2-yl)-2,3,3a,4,5,5a,5b,6,7,7a,8,11,11a,11b,12,13,13a,13b-octadecahydro-1H-cyclopenta[a]chrysen-9-yl)benzoic acid]",< 100 nM
8,"C=C(C)[C@@H]1CC[C@]2(CNCCN(C)CCO)CC[C@]3(C)[C@H](CC[C@@H]4[C@@]5(C)CC=C(c6ccc(C(=O)O)cc6)C(C)(C)[C@@H]5CC[C@]43C)[C@@H]12 [Example 26, 4-((1R,3aS,5aR,5bR,7aR,11aS,11bR,13aR,13bR)-3a-((2-((2-hydroxyethyl)(methyl)amino)ethylamino)methyl)-5a,5b,8,8,11a-pentamethyl-1-(prop-1-en-2-yl)-2,3,3a,4,5,5a,5b,6,7,7a,8,11,11a,11b,12,13,13a,13b-octadecahydro-1H-cyclopenta[a]chrysen-9-yl)benzoic acid]",< 100 nM
9,"C=C(C)[C@@H]1CC[C@]2(CNCC(C)CN3CCCC3=O)CC[C@]3(C)[C@H](CC[C@@H]4[C@@]5(C)CC=C(c6ccc(C(=O)O)cc6)C(C)(C)[C@@H]5CC[C@]43C)[C@@H]12 (stereo partly drawn) [Example 79, 4-((1R,3aS,5aR,5bR,7aR,11aS,11bR,13aR,13bR)-5a,5b,8,8,11a-pentamethyl-3a-((2-methyl-3-(2-oxopyrrolidin-1-yl)propylamino)methyl)-1-(prop-1-en-2-yl)-2,3,3a,4,5,5a,5b,6,7,7a,8,11,11a,11b,12,13,13a,13b-octadecahydro-1H-cyclopenta[a]chrysen-9-yl)benzoic acid]",< 100 nM
10,"C=C(C)[C@@H]1CC[C@]2(CNCCCN3CCS(=O)(=O)CC3)CC[C@]3(C)[C@H](CC[C@@H]4[C@@]5(C)CC=C(c6ccc(C(=O)O)cc6F)C(C)(C)[C@@H]5CC[C@]43C)[C@@H]12 [Example 92, 4-((1R,3aS,5aR,5bR,7aR,11aS,11bR,13aR,13bR)-3a-(((3-(1,1-dioxido-4-thiomorpholinyl)propyl)amino)methyl)-1-isopropenyl-5a,5b,8,8,11a-pentamethyl-2,3,3a,4,5,5a,5b,6,7,7a,8,11,11a,11b,12,13,13a,13b-octadecahydro-1H-cyclopenta[a]chrysen-9-yl)-3-fluorobenzoic acid]",< 100 nM
11,"C=C(C)[C@@H]1CC[C@]2(CNC(=O)OCCN3CCS(=O)(=O)CC3)CC[C@]3(C)[C@H](CC[C@@H]4[C@@]5(C)CC=C(c6ccc(C(=O)O)cc6)C(C)(C)[C@@H]5CC[C@]43C)[C@@H]12 [Example 165, 4-((1R,3aS,5aR,5bR,7aR,11aS,11bR,13aR,13bR)-3a-((((2-(1,1-dioxido-4-thiomorpholinyl)ethoxy)carbonyl)amino)methyl)-1-isopropenyl-5a,5b,8,8,11a-pentamethyl-2,3,3a,4,5,5a,5b,6,7,7a,8,11,11a,11b,12,13,13a,13b-octadecahydro-1H-cyclopenta[a]chrysen-9-yl)benzoic acid]",< 100 nM
12,"C=C(C)[C@@H]1CC[C@]2(CNCCCNCCO)CC[C@]3(C)[C@H](CC[C@@H]4[C@@]5(C)CC=C(c6ccc(C(=O)O)cc6)C(C)(C)[C@@H]5CC[C@]43C)[C@@H]12 [Example 61, 4-((1R,3aS,5aR,5bR,7aR,11aS,11bR,13aR,13bR)-3a-((3-(2-hydroxyethylamino)propylamino)methyl)-5a,5b,8,8,11a-pentamethyl-1-(prop-1-en-2-yl)-2,3,3a,4,5,5a,5b,6,7,7a,8,11,11a,11b,12,13,13a,13b-octadecahydro-1H-cyclopenta[a]chrysen-9-yl)benzoic acid]",< 100 nM
13,"C=C(C)[C@@H]1CC[C@]2(CNC(CC(=O)O)C(=O)N3CCC(F)(F)C3)CC[C@]3(C)[C@H](CC[C@@H]4[C@@]5(C)CC=C(c6ccc(C(=O)O)cc6)C(C)(C)[C@@H]5CC[C@]43C)[C@@H]12 (stereo partly drawn) [Example 131, 4-((1R,3aS,5aR,5bR,7aR,11aS,11bR,13aR,13bR)-3a-((3-carboxy-1-(3,3-difluoropyrrolidin-1-yl)-1-oxopropan-2-ylamino)methyl)-5a,5b,8,8,11a-pentamethyl-1-(prop-1-en-2-yl)-2,3,3a,4,5,5a,5b,6,7,7a,8,11,11a,11b,12,13,13a,13b-octadecahydro-1H-cyclopenta[a]chrysen-9-yl)benzoic acid]",< 100 nM
14,"C=C(C)[C@@H]1CC[C@]2(CNCCN(C(C)C)C(C)C)CC[C@]3(C)[C@H](CC[C@@H]4[C@@]5(C)CC=C(c6ccc(C(=O)O)cc6)C(C)(C)[C@@H]5CC[C@]43C)[C@@H]12 [Example 57, 4-((1R,3aS,5aR,5bR,7aR,11aS,11bR,13aR,13bR)-3a-((2-(diisopropylamino)ethylamino)methyl)-5a,5b,8,8,11a-pentamethyl-1-(prop-1-en-2-yl)-2,3,3a,4,5,5a,5b,6,7,7a,8,11,11a,11b,12,13,13a,13b-octadecahydro-1H-cyclopenta[a]chrysen-9-yl)benzoic acid]",< 100 nM
15,"C=C(C)[C@@H]1CC[C@]2(CNCc3ccoc3)CC[C@]3(C)[C@H](CC[C@@H]4[C@@]5(C)CC=C(c6ccc(C(=O)O)cc6)C(C)(C)[C@@H]5CC[C@]43C)[C@@H]12 [Example 53, 4-((1R,3aS,5aR,5bR,7aR,11aS,11bR,13aR,13bR)-3a-((furan-3-ylmethylamino)methyl)-5a,5b,8,8,11a-pentamethyl-1-(prop-1-en-2-yl)-2,3,3a,4,5,5a,5b,6,7,7a,8,11,11a,11b,12,13,13a,13b-octadecahydro-1H-cyclopenta[a]chrysen-9-yl)benzoic acid]",< 100 nM

# Same assay, conditions: NL43, MT-2 cells infected 4-5 days with NLRluc recombinant virus, numeric value
row,SMILES,EC50
1,"C=C(C)[C@@H]1CC[C@]2(CN(C)CCS(=O)(=O)N3CCN(C)CC3)CC[C@]3(C)[C@H](CC[C@@H]4[C@@]5(C)CC=C(c6ccc(C(=O)O)cc6)C(C)(C)[C@@H]5CC[C@]43C)[C@@H]12 [Example 44, 4-((1R,3aS,5aR,5bR,7aR,11aS,11bR,13aR,13bR)-5a,5b,8,8,11a-pentamethyl-3a-((methyl(2-(4-methylpiperazin-1-ylsulfonyl)ethyl)amino)methyl)-1-(prop-1-en-2-yl)-2,3,3a,4,5,5a,5b,6,7,7a,8,11,11a,11b,12,13,13a,13b-octadecahydro-1H-cyclopenta[a]chrysen-9-yl)benzoic acid]",20 nM
